Reference: patent US20250011363A1, “OPTIMIZED SHORTENED PEPTIDE THAT BINDS TO ACETYLCHOLINE RECEPTOR, AND USE THEREOF” (SKINMED CO., LTD., priority 2021, published 2025)
Like-named read-outs stand apart in the source and are kept apart here. No end group written: not given here.

Legend:
[1] = test system: dermal fibroblast cells isolated from human skin; settings: 100 nM to 100 μM, 24 hours
Experimental: The optimized shortened peptides according to the present disclosure were assayed for cytotoxicity. In this regard, the cytotoxicity was assessed by the MTT [(3-(4,5-dimethylthiazol-2-yl)-2,5-diphenyltetrazolium bromide] method using dermal fibroblast cells isolated from human skin. The pre-cultured cells were seeded at a concentration of 1×10^5 cells/mL in a 24-well plate and cultured for 18 hours. Subsequently, the medium was removed and the diluted sample was added to the medium free of FBS and incubated for 24 hours, after which the medium was removed and MTT solution was added at a concentration of 1 μg/mL and reacted for 3 hours. Unreacted MTT was removed, and DMSO 100 μL was added to dissolve the formed formazan, and the absorbance at 540 nm was read on an ELISA reader.

acetylcholine receptor [2] = molecular target: T1, acetylcholine receptor (Homo sapiens, UniProt P02708); experiment: SPR binding affinity (RU) of optimized 5mer/6mer/7mer peptides, Examples 6-7
How it was run: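 Synthetic 5mer and 6mer peptides, built from frequent or infrequent amino-acid combinations, were tested at 10 μM for binding to the human acetylcholine receptor by surface plasmon resonance. Binding is reported in response units (RU).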

[3] = molecular target: T2, Acetylcholine receptor-overexpressing TE671 cells (Homo sapiens, UniProt P02708); experiment: Calcium imaging (Fura-2-AM) of nicotine response, acetylcholine receptor inhibition; assay type: cell-based; settings: TE671 cells, nicotine 400 uM, calcium imaging
T2 construct: endogenous in cells; host or cells: TE671 cells
Experimental: Acetylcholine receptor-overexpressing TE671 cells were cultured at 37° C. in DMEM medium supplemented with 10% FBS and 1% P/S under 5% CO2. After the TE671 cells were sufficiently grown for 4 days, the cells were detached using trypsin and the cell culture was plated in an amount of 1 ml at a density of 2×10^4 cells/well into 12-well cell culture plate with an 18 mm cover-slip lined therein, and cultured for 4 days.
The cover-slip on which the cells had grown was transferred to a fresh 12-well cell culture plate, and 997 μl of HBSS buffer and 3 μl of Fura-2-AM were added and gently mixed, followed by incubation at 37° C., 5% CO2 for 15 minutes. After incubation, the remaining Fura-2-AM was removed by washing 3-4 times with 1 ml of HBSS buffer, and an additional 1 ml was added. The cover-slip with the grown cells was placed in a chamber, and 500 μl of HBSS buffer was dispensed. The final concentration of nicotine was adjusted to 400 µM to observe the calcium imaging reaction. Then, while keeping the nicotine concentration fixed, the concentration of the sample was adjusted to find the inhibiting concentration.
The inhibitory ability of the Palmitate-6mer-1-43 and Palmitate-5mer-73 peptides on the acetylcholine receptor was examined in the same manner as in Example 6. Additionally, the inhibitory ability (IC50) of the optimized short peptides and the palmitate-modified peptides according to the present disclosure against acetylcholine receptor was compared with Synake and is depicted in FIG. 16.

acetylcholine receptor [4] = molecular target: T1, acetylcholine receptor; experiment: SPR (Biacore) affinity of shortened Espep2 peptides, Examples 1-2; assay type: binding
Experimental: To construct an optimized shortened library from the previous Espep2 peptide, assessment was made of the affinity of peptides having sequences sequentially removed from the N- and C-terminals. Initially, surface plasmon resonance (SPR) experiments were conducted using a biosensor chip (Biacore3000, Biacore AB, Uppsala, Sweden). Selected acetylcholine receptor proteins were immobilized on a CM5 chip (Biacore) using EDC/NHS and observed for association and dissociation for up to 500 seconds. The observation conditions were set forth as follows: running buffer 20 mM Tris (pH 7.4), rate 30 ul/min, concentration 20 μM (peptide), and the results are depicted in FIG. 1.
To identify the crucial sequences in the shortened peptides, alanine scanning was conducted. Wild-type (WT) Espep2-6mer (RKSLLR) and Espep2-5mer (KSLLR) peptides were synthesized with each amino acid sequentially substituted with alanine (Ala, A), and their affinity was measured using the same method as in Example 1. The measurements are depicted in FIG. 2 after normalization to WT.
Moreover, among the six amino acids in the RKSLLR sequence, R residues at the N and C terminals are crucial.

T1 sequence (P02708 21-457): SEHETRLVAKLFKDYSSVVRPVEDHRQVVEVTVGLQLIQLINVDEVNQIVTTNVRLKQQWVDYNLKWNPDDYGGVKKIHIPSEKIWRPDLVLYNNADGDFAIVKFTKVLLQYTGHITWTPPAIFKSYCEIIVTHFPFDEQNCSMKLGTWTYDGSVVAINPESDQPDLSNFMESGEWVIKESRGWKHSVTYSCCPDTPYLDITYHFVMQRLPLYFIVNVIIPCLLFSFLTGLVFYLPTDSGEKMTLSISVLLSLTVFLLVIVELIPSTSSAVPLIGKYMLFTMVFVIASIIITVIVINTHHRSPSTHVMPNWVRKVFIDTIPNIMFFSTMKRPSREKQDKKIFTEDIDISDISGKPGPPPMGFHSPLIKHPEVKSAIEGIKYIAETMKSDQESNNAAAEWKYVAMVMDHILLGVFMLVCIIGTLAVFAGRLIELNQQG
T2 sequence (P07510 23-517): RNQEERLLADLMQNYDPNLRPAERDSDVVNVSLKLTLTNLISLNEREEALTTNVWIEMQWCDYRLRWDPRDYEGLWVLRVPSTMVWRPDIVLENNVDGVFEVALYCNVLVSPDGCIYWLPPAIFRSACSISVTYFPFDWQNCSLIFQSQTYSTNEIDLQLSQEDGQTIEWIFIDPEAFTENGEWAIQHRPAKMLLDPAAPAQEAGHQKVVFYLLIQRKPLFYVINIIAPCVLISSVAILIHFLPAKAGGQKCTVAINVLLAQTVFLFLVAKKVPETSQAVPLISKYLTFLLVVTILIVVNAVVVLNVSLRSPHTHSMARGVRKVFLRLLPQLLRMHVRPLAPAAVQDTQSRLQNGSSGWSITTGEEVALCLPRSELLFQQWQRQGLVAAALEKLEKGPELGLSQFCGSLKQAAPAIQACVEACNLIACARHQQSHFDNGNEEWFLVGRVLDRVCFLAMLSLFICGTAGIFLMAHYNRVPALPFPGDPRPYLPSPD
T2 sequence (P11230 24-501, further chain): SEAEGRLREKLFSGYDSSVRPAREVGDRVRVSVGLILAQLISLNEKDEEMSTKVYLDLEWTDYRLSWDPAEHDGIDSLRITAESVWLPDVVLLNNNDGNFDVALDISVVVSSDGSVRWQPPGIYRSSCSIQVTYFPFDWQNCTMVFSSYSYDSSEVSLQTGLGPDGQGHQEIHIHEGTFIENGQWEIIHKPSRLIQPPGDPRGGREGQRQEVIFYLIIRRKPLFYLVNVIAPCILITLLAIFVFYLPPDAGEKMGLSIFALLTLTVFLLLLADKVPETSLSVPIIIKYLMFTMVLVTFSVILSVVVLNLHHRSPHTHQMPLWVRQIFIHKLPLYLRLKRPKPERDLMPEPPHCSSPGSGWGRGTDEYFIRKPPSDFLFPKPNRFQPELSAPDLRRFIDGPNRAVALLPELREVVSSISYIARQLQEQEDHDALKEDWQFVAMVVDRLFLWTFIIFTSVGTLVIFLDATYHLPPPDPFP
T2 sequence (Q07001 22-517, further chain): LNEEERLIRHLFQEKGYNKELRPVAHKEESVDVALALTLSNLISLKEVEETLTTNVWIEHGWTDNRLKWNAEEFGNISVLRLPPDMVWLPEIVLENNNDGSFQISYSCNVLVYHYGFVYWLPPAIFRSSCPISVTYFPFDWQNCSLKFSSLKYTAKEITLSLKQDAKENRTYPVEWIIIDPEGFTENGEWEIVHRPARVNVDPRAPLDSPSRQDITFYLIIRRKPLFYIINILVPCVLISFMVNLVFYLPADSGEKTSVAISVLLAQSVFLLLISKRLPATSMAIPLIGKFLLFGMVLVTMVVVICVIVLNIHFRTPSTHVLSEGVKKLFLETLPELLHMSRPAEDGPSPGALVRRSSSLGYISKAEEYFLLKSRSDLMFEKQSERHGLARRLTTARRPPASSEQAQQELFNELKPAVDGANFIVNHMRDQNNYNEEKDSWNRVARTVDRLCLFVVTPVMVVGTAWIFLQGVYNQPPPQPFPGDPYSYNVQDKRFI
T2 sequence (P02708 21-457): as the sequence (P02708 21-457) above

Substance | cytotoxicity (MTT) [1] | Kd (acetylcholine receptor [2]) [nM] | Binding affinity (RU) (acetylcholine receptor [2]; SPR, peptides at 10 μM) | Binding affinity (acetylcholine receptor [2]; SPR, peptides tested at 10 μM, 6mer-1 Top sequence (top combinations)) [Ru] | concentration at which acetylcholine receptors were inhibited [3] [µM] | skin permeability (after 8 hours, 37° C.) [%] | Kd (acetylcholine receptor [4]) [nM] | higher affinity compared to Synake (acetylcholine receptor [4]; SPR, FIG. 1) [times] | skin permeability (sampled up to 24 hours)
RKRIRR [6mer-1-43, RKRIRR] | non-toxic | 609 | 548 | 548 | 10 |  |  |  | 
RRQRR [5mer-73, RRQRR] | non-toxic |  |  |  |  | 66.87 |  |  | 
WTWKGRKSLLR [Espep2-11mer, WTWKGRKSLLR, reference compound] |  |  |  |  | 5 |  | 1200 | 1916 | did not permeate at all
